Consider 1 molecule from US20050256103A1, “Indole derivative having piperidine ring” (Eisai Co., Ltd., priority 2004, published 2005).

Molecules are shown by their SMILES. Read-outs that look alike come from different tables or passages of the source.

For assay [1], the target named is T1, 5-HT1A receptor (Sus scrofa, UniProt A0A4X1UTF5).
T1 construct: Swine hippocampus was homogenized in a 50 mM Tris-Hcl buffer; from tissue; host or cells: swine hippocampus, membrane fraction
T1 sequence (A0A4X1UTF5 1-422): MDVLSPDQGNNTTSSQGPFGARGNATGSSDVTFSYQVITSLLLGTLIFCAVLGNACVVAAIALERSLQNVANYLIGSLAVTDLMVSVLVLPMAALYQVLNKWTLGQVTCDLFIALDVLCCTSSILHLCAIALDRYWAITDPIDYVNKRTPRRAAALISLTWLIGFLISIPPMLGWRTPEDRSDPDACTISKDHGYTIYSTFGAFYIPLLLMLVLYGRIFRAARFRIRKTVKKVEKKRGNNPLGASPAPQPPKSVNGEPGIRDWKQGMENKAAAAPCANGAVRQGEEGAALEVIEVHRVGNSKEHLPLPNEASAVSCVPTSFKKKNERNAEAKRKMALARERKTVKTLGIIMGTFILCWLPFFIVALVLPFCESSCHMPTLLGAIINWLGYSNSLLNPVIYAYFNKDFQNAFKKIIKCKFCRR
The experiment in a line: Affinity for serotonin 1A receptor: inhibition of [3H]MPPF binding in swine hippocampal membrane fraction. As to conditions: for IC50: [3H]MPPF 0.5 nM, swine hippocampal membrane, 37°C 30 min. An outline of the steps: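 Swine hippocampal membranes incubated 30 min at 37 °C with 0.5 nM [3H]MPPF and test compound in 50 mM Tris-HCl pH 7.4, 1% DMSO, with 10 mM MgCl2 (G-protein-coupled, high-affinity state) or 1 mM Gpp(NH)p (uncoupled, low-affinity state). Bound radioactivity measured by filtration and scintillation counting; nonspecific binding defined with 10 μM WAY-100,635. IC50 in each state; low/high IC50 ratio taken as an estimate of intrinsic activity.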

Assay [2] concerns urinary reflex of Sprague-Dawley female rats. Kind of assay: Inhibitory action against accentuated urinary reflex of rat due to destruction of the superior colliculus (cystometrogram). The assay is classed as in vivo. As to conditions: dose 0.3 mg/kg, iv; rat with superior colliculus lesion. The text has this: (1) In the present test, Sprague-Dawley female rates (200-350 g) were used. The rats were subjected to median incision of the abdomen under anesthesia. Thereafter, a hole with a minor diameter was made on the head portion of the bladder, and a catheter used for measurement of an intravesical pressure was placed therein. A catheter used for administration of a test substance was placed in the femoral vein. These catheters were fixed at the occipital region of the rat through the subcutis. One day later, the urinary reflex of the rats was measured with a cystometrogram. Thereafter, the rats were fixed on a brain stereotaxis apparatus under anesthesia, and then subjected to median incision of the scalp. […] Thereafter, electric current was applied (65° C., 4 minutes), so as to damage the brain tissues. After completion of the operation, when the rat awakened from anesthesia, cystometrogram was conducted again to confirm the enhanced state of urinary reflex. A test substance was administered through the catheter placed in the femoral vein, and the action of the test substance to the urinary reflex was evaluated. In addition, the effects of several test substances were compared using the maximal reaction (Emax).

As usually defined, the IC50 is the concentration that gives 50% inhibition. For the molecule `CNC(=O)c1ccc2ccn(C3CCN(CCc4c(OC)ccc5c4OC(C)(C)CC5=O)CC3)c2c1` [Compound 20, 1-{1-[2-(7-methoxy-2,2-dimethyl-4-oxochroman-8-yl)ethyl]piperidin-4-yl}-N-methyl-1H-indole-6-carboxamide], the half-inhibitory concentration (IC50) in assay [1] (receptor in high affinity (G-protein binding, MgCl2 10 mM) state, read-out: High affinity IC50) came to 0.2 nM; in assay [1] (receptor in low affinity (G-protein non-binding, Gpp(NH)p 1 mM) state, read-out: Low affinity IC50), 0.16 nM. The L/H ratio in assay [1] (low affinity IC50 divided by high affinity IC50, 1 or smaller = no intrinsic activity, 2 or greater = intrinsic activity) was 0.8. Besides, the “Bladder capacity Emax” value in assay [2] amounted to 94%.
